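Cells were grown in 96-well plates and exposed to each compound for 48 hours at five concentrations; endpoints were interpolated linearly between bracketing concentrations, or set to the highest concentration if not reached. Abbreviation: GI50, concentration required for 50% inhibition of growth.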 Active and inactive are the calls of the source. Rule as the data show it: active = GI50 up to about 1.1 µM and inactive = higher.
Legend:
Assay in all cases: inhibition of tumour cell growth, NCI panel, 48 h
[1] = system: A549
[2] = system: ACHN
[3] = system: BT-549
[4] = system: CAKI-1
[5] = system: CCRF-CEM
[6] = system: COLO 205
[7] = system: DU-145
[8] = system: EKVX
[9] = system: HCC 2998
[10] = system: HCT-116
[11] = system: HCT-15
[12] = system: HL-60
[13] = system: HOP-92
[14] = system: HT-29
[15] = system: Hs-578T
[16] = system: IGROV-1
[17] = system: KM12
[18] = system: LOX IMVI
[19] = system: M14
[20] = system: MCF7
[21] = system: MDA-MB-231
[22] = system: MDA-MB-435
[23] = system: MDA-N
[24] = system: MOLT-4
[25] = system: NCI-H23
[26] = system: NCI-H460
[27] = system: NCI-H522
[28] = system: NCI/ADR-RES
[29] = system: OVCAR-3
[30] = system: OVCAR-4
[31] = system: OVCAR-5
[32] = system: OVCAR-8
[33] = system: PC-3
[34] = system: RPMI-8226
[35] = system: RXF 393
[36] = system: SF-268
[37] = system: SF-295
[38] = system: SF-539
[39] = system: SK-MEL-28
[40] = system: SK-MEL-2
[41] = system: SK-MEL-5
[42] = system: SK-OV-3
[43] = system: SN12C
[44] = system: SNB-19
[45] = system: SNB-75
[46] = system: SR
[47] = system: SW-620
[48] = system: T47D
[49] = system: TK-10
[50] = system: U-251
[51] = system: UACC-257
[52] = system: UACC-62
[53] = system: UO-31
[54] = system: 786-0
[55] = system: HOP-62
[56] = system: K562
[57] = system: Malme-3M
[58] = system: NCI-H226

Measured: GI50

CCOC1=NC(C(F)(F)F)(C(F)(F)F)N=C(N2CCOCC2)O1
inactive: [1] > 100 µM | [2] > 100 µM | [3] > 100 µM | [4] > 100 µM | [5] > 100 µM | [6] > 100 µM | [7] > 100 µM | [8] > 100 µM | [9] > 100 µM | [10] > 100 µM | [12] 89.5 µM | [13] > 100 µM | [14] > 100 µM | [15] > 100 µM | [16] > 100 µM | [17] > 100 µM | [18] > 100 µM | [19] > 100 µM | [20] > 100 µM | [21] > 100 µM | [22] > 100 µM | [23] > 100 µM | [24] > 100 µM | [25] > 100 µM | [26] > 100 µM | [27] > 100 µM | [28] > 100 µM | [29] > 100 µM | [30] > 100 µM | [31] > 100 µM | [32] > 100 µM | [33] > 100 µM | [34] > 100 µM | [35] 80.7 µM | [36] > 100 µM | [37] > 100 µM | [38] > 100 µM | [39] > 100 µM | [40] > 100 µM | [41] > 100 µM | [42] > 100 µM | [43] > 100 µM | [44] > 100 µM | [45] > 100 µM | [46] > 100 µM | [47] > 100 µM | [48] 27 µM | [49] > 100 µM | [50] > 100 µM | [51] > 100 µM | [52] 24 µM | [53] > 100 µM
> 100 µM: [11]

COCOc1c(C(O[Si](C)(C)C(C)(C)C)c2cnc(Sc3ccccc3)n2C)ccc(OC)c1OC (stereo not given)
active: [48] 0.256 µM
inactive: [54] 1.82 µM | [1] 1.88 µM | [2] 2.42 µM | [3] 1.69 µM | [4] 3.03 µM | [5] 2.84 µM | [7] > 100 µM | [8] 2.53 µM | [9] 1.84 µM | [10] 1.6 µM | [12] 1.87 µM | [55] 1.66 µM | [13] 2.13 µM | [14] 1.93 µM | [15] 2.31 µM | [16] 1.97 µM | [56] 2.75 µM | [17] 1.92 µM | [18] 1.84 µM | [20] 1.76 µM | [21] 1.66 µM | [22] 1.75 µM | [23] 1.77 µM | [24] 2.54 µM | [57] 2.45 µM | [58] 1.85 µM | [25] > 100 µM | [26] 1.53 µM | [27] 1.62 µM | [28] 1.35 µM | [29] 1.7 µM | [30] 3 µM | [31] > 100 µM | [32] 1.43 µM | [33] 1.55 µM | [34] 1.85 µM | [35] 1.36 µM | [36] 1.64 µM | [37] 2.65 µM | [38] 1.97 µM | [39] 1.84 µM | [40] 1.31 µM | [41] 1.82 µM | [42] 2.05 µM | [43] 1.78 µM | [44] 2.14 µM | [45] 2.2 µM | [46] 2.47 µM | [47] 1.93 µM | [49] 4.28 µM | [50] 1.64 µM | [51] 2.25 µM | [52] 1.65 µM | [53] 1.83 µM
1.94 µM: [11]

Cn1cc(NC(=O)Nc2cc(C(=O)Nc3cc(C(=O)Nc4ccc5cc(S(=O)(=O)O)cc(S(=O)(=O)O)c5c4)n(C)c3)n(C)c2)cc1C(=O)Nc1cc(C(=O)Nc2ccc3cc(S(=O)(=O)O)cc(S(=O)(=O)O)c3c2)n(C)c1
inactive: [54] > 100 µM | [1] 84.9 µM | [2] > 100 µM | [3] > 100 µM | [5] > 100 µM | [6] > 100 µM | [7] > 100 µM | [8] 38.5 µM | [9] > 100 µM | [10] > 100 µM | [12] > 100 µM | [55] > 100 µM | [13] 90.8 µM | [14] > 100 µM | [15] > 100 µM | [16] > 100 µM | [56] > 100 µM | [17] > 100 µM | [18] > 100 µM | [19] 91.4 µM | [20] > 100 µM | [21] > 100 µM | [22] > 100 µM | [23] > 100 µM | [24] > 100 µM | [57] > 100 µM | [58] > 100 µM | [25] > 100 µM | [26] > 100 µM | [27] > 100 µM | [28] > 100 µM | [29] 84.3 µM | [30] > 100 µM | [31] > 100 µM | [32] > 100 µM | [33] > 100 µM | [34] > 100 µM | [35] > 100 µM | [36] > 100 µM | [37] > 100 µM | [38] > 100 µM | [39] > 100 µM | [41] > 100 µM | [42] > 100 µM | [43] > 100 µM | [44] > 100 µM | [45] 82 µM | [46] > 100 µM | [47] > 100 µM | [48] > 100 µM | [49] 83 µM | [50] > 100 µM | [51] > 100 µM | [52] > 100 µM | [53] > 100 µM
> 100 µM: [11]

Source: ChEMBL document CHEMBL1201862, “PubChem BioAssay data set” (2004)
